Measured values as given in patent US7781423B2, “Compounds to promote regeneration of bone marrow” (priority 2007, dated 2010).
Where two headings read alike, the source gives them in different places.

Key:
[1] = tested on: MXT mammary tumor; type: in vivo; conditions: for effect on body weight: MXT tumor-bearing, CP-treated mice, by day 22; for Total weight / Tumor weight / Body weight: CP 120-mg/kg i.p. x8 daily from day 6, CC compounds s.c. with each CP (1 and 3: 4.5-mg/kg, 26: 2.0-mg/kg); for Body weight: total minus tumor weight
Description: This experiment was designed to determine whether in a tumor model CC compounds could prevent cyclophosphamide-induced loss of body weight resulting from the depression of blood marrow function. Specified pathogen free (SPF) hygienic category colonies of first generation hybrid BDF1 (C57B1 female×DBA/2 male) adult female mice, weighing 23-24 g, were used. The animals were kept in macrolon cages at 22-24° C. (45-55% humidity), with a lighting regimen of 12/12 h light/dark. […] The animals used in these studies were cared for according to the “Guiding Principles for the Care and Use of Animals” based upon the Helsinki declaration.
MXT mammary tumor pieces (containing about 10^6 tumor cells) were implanted subcutaneously to develop the tumors. After six days when the tumor-bearing mice were first treated, the sizes of the tumors were in the 0.26-0.30 cm^3 range. All compounds used were dissolved in 0.9% sodium chloride and applied subcutaneously (CC compounds) or intraperitoneally (CP) in 50 μl volume. Tumor volume was determined by using calipers in three dimensions; this technique is well known to one having ordinary skill in the art. Tumor volume was calculated according to the generally accepted formula: V=a^2×b×π/6, where “a” and “b” mean the shortest and longest diameter, respectively, of the measured tumor.
In the first group, animals received no treatment. In the second group, mice were administered 120-mg/kg of CP on day 6 followed by seven consecutive daily treatments with the same dose. In the third group, each treatment with CP was associated with administration of 4.5-mg/kg of CCompound1. In the fourth group, each treatment with CP was associated with administration of 4.5-mg/kg of CCompound3. In the fifth group, each treatment with CP was associated with administration of 2.0-mg/kg of CCompound26. Each group included 7 mice. All data represent the average of 7 determinations (one determination with each mouse in the group).

[2] = tested on: healthy mice; test: Toxicity in healthy mice; type: in vivo; conditions: for well tolerated maximal dose: mice weighing about 25 g
Description: Accordingly, a well tolerated maximal dose for CCompound1 or CCompound3 in mice (weighing about 25 g) is […] which corresponds to a dose of 4.6 mg/kg. Therapeutically effective concentrations of CC compounds in humans will exert significant promoting effects on bone marrow regeneration without causing toxicity in other normal healthy tissues.

[3] = tested on: healthy mice; test: Toxicity in healthy mice; type: in vivo; conditions: 1,000-1,500 μmole doses
[4] = Solubility in water
[5] = tested on: cyclophosphamide-treated mice; test: Blood profile in cyclophosphamide-treated mice; type: in vivo, C57B1 mice; conditions: for effect on blood profile (WBC, PTL): cyclophosphamide-treated mice, CCompound26 at a smaller dose than the two others
Description: Twelve week old female C57B1 mice were used for the experiments. Each drug was administered intraperitoneally once a day for 5 consecutive days. In the second, third, fourth and fifth groups, mice were administered 120 mg/kg of cyclophosphamide (CP). In a third group, mice were also administered 4.5 mg/kg of CCompound1. In a fourth group, mice were also administered 4.5 mg/kg of CCompound3. In a fifth group, mice were also administered 2.0 mg/kg of CCompound26. In the first group, mice received no treatment. Each group included 5 animals. After 3 hours of the last treatments (on day 5), blood samples were collected from the ocular venous plexus of ether-anesthetized mice by retro-orbital venipuncture in heparanized tubes. Complete cell counts (RBC, red blood cell; WBC, white blood cell; PTL, platelet) were determined with a Sysmex F-800 hematology analyzer (To a Medical Electronics Co. LTD, Kobe, Japan). All data shown in Table 2 are the average of 5 independent determinations.

[6] = tested on: human cancer patients; conditions: following stem cell transplantation; cited from earlier work
[7] = single 450 μmole (about 4.6 mg/kg) or daily 400 μmole for 5 consecutive days
[8] = i.p. once a day for 5 days, CP 120 mg/kg, CCompound1, 3: 4.5 mg/kg, CCompound26: 2.0 mg/kg, blood 3 hours after last treatment (day 5), 5 animals
[9] = day 6 after tumor transplantation (first treatment day)
[10] = day 8 after tumor transplantation
[11] = day 11 after tumor transplantation
[12] = day 15 after tumor transplantation
[13] = day 18 after tumor transplantation
[14] = day 22 after tumor transplantation

With `CC[N+](C)(CC)CCOCc1ccc2sc3ccccc3c(=O)c2c1.[I-]` [CCcompound3] the “effect on body weight” value [1] was “body weight gain”, the “well tolerated maximal dose” value [2] was 450 μmole/animal and the “well tolerated maximal dose” value ([2]; corresponds to 450 μmole/animal) was 4.6 mg/kg. For the same molecule, the “change in the composition of various blood constituents” value [2, 7] was “did not cause any significant change”, the “pathological alterations in the liver, brain, kidney, heart, spleen, intestine, and lung” value [2, 7] was “did not induce significant pathological alterations” and the “tissue alterations at high doses” value [3] was “mild parenchymal degeneration in the heart, focal hypostasis and chronic bronchopneumonia”. For the same molecule, the solubility in water [4] was “soluble in water”.

In the case of `C=CC[N+](CC)(CC)CC/C=C1/c2ccccc2Sc2ccc(C)cc21.[Br-]` [CCcompound26, N,N-Diethyl-N-allyl-3-(2-methyl-9H-thioxanthen-9-ylidene)-propane-1-aminium bromide], the “effect on cyclophosphamide-induced decrease in white blood cell and platelet counts” value ([5]; 2.0 mg/kg) is reported as “partially reversed”, the “effect on blood profile (WBC, PTL)” value [5] is reported as “least effective” and the “toxic effects at the effective dose” value ([1]; 2.0 mg/kg, inferred from prevented body weight loss) is reported as “does not exert significant toxic effects”. The “effect on body weight” value [1] was “prevented body weight loss” and the solubility in water [4] was “water-soluble”.

For `O=P1(N(CCCl)CCCl)NCCCO1` (centres unmarked) [CP, cyclophosphamide], the “effect on blood profile (WBC, PTL)” value [5] was “decreases both WBC and PTL numbers”, the PTL [5, 8] was 404 ± 55 ×10^3/μl and the RBC [5, 8] was 8.1 ± 0.9 ×10^6/μl. For the same molecule, the WBC [5, 8] was 3.2 ± 0.7 ×10^6/μl, the “effect on tumor weight” value ([1]; MXT tumor model) was “effectively decreased tumor weight” and the “effect on body weight” value [1] was “lost significant amounts of weight”. For the same molecule, the Total weight [1, 9] was 22.4 grams, the Tumor weight [1, 9] was 0.2 grams and the Body weight [1, 9] was 22.2 grams. For the same molecule, the Total weight [1, 10] was 21.8 grams, the Tumor weight [1, 10] was 0.2 grams and the Body weight [1, 10] was 21.6 grams. The Total weight [1, 11] was 20.2 grams, the Tumor weight [1, 11] was 0.1 grams and the Body weight [1, 11] was 20.1 grams. It also gave a Total weight [1, 12] of 19.9 grams, a Tumor weight [1, 12] of 0.2 grams and a Body weight [1, 12] of 19.7 grams. It also gave a Total weight [1, 13] of 18.8 grams, a Tumor weight [1, 13] of 0.1 grams and a Body weight [1, 13] of 18.7 grams. It also gave a Total weight [1, 14] of 18.1 grams, a Tumor weight [1, 14] of 0.1 grams and a Body weight [1, 14] of 18.0 grams.

B1: granulocyte-colony stimulating factor (protein, UniProt P09919 31-207, looked up)
Granulocyte …: TPLGPASSLPQSFLLKCLEQVRKIQGDGAALQEKLVSECATYKLCHPEELVLLGHSLGIPWAPLSSCPSQALQLAGCLSQLHSGLFLYQGLLQALEGISPELGPTLDTLQLDVADFATTIWQQMEELGMAPALQPTQGAMPAFASAFQRRAGGVLVASHLQSFLEVSYRVLRHLAQP
notes: cytokine that can reduce the duration and severity of cyclophosphamide-induced neutropenia
For B1, the “time to recover the platelet count to about 100,000 per 1 μl” value [6] is given as “about 14 days” and the “time to recover the white blood cell count to 2,500 per 1 μl (mm^3)” value [6] is given as “about 10 days”.
